Measurements as given in paper PMC9890698 (BMC Biology, 2023).
Values joined by “and” are separate entries in the source; they are usually repeats but may differ in a detail not shown here. Equal entries are not always repeated.

What was measured:
Human P2Y1-R = biological target: T1, Human P2Y1-R (Homo sapiens, UniProt P47900); test: β-arrestin 2 recruitment BRET1 assay (β-arrestin 2-RLuc / P2Y1-R-Venus) in HEK293T cells; type: cell-based; conditions: for MRS2179-modulated BRET: Figure 3g; for MRS2179-modulated BRET / b-arrestin 2 signaling, Ligand-modulated BRET (% of maximum MRS2179 mean value) / Ligand-modulated BRET: individual replicates; for b-arrestin 2 signaling, Ligand-modulated BRET (% of maximum MRS2179 mean value): Figure 4b; for Ligand-modulated BRET: Figure 3h, ligand 10 µM
T1 construct: expressed in transfected cells; host or cells: HEK293T/17
T1 sequence (P47900 whole entry): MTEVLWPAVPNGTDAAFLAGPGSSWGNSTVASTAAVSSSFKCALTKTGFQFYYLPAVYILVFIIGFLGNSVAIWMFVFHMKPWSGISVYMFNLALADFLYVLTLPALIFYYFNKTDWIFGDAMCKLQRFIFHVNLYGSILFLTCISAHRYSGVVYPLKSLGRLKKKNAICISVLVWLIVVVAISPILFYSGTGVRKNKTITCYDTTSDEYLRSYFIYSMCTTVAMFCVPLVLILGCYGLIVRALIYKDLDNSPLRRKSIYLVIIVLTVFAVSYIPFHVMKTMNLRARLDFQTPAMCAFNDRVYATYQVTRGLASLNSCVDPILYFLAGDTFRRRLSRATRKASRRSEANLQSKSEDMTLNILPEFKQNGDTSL
Source text: We assessed β-arrestin 2 recruitment to the receptor using BRET^1 assay. The assay measures the interaction between β-arrestin 2 fused to the Renilla reniformis luciferase (RLuc) energy donor and the receptor fused to fluorescent Venus energy acceptor (Fig. 3a). The recruitment of cytosolic β-arrestin 2 to the receptor at the plasma membrane in the presence of an agonist will promote a significant increase of the BRET signal compared to the basal state, reflecting the close proximity between the β-arrestin 2 energy donor and the receptor energy acceptor [22].
Human P2Y1-R (NCBI Reference Sequence: NM_002563.2) and P2Y12-R (NCBI Reference Sequence: NM_022788.3) were fused to double Myc epitope and rat AT1-R (NCBI Reference Sequence: NM_030985.4) to HA tag in N-terminus extracellular region. Alternatively, receptors were also fused to Venus tag in C-terminus intracellular region. Plasmids encoding Gαq-RLuc8, GFP2-Gγ2 and untagged Gβ1 were previously described. ADP was purchased from Sigma-Aldrich/Merck (Darmstadt, Germany). […] The Gq inhibitor (FR900359) was kindly supplied by Evi Kostenis (University of Bonn. Germany).
G protein activation and β-arrestin 2 recruitment were performed as previously described. Briefly, vectors encoding receptors, Gαq-RLuc8, GFP2-Gγ2, Gβ1, or β-arrestin 2 were transiently cotransfected into HEK293T/17 cells as indicated in the figure legends. Forty-eight hours after transfection, cells were washed and resuspended in PBS containing 0.1% (w/v) glucose at room temperature and then distributed (80 μg proteins/well) in a 96-well microplate (PerkinElmer). For G protein activation experiments (BRET^2), cells were incubated in the absence (basal BRET signal) or in the presence of ligand for 1 minute. BRET signal between RLuc8 and GFP2 was measured after addition of the luciferase substrate coelenterazine 400a (5 μM). For β-arrestin 2 recruitment (BRET^1), cells were stimulated with ligands for 5 or 15 min. BRET signal was recorded after incubation with coelenterazine h (5 μM) for 8 min. For kinetics studies, BRET signal between RLuc and Venus was recorded at 20-s intervals at basal state for the 2 first minutes and then for 5 min after ligand injection. For saturation curves (BRET^1), the expression level of Venus- or RLuc-tagged protein was determined by direct measurement of total fluorescence and luminescence respectively. Total fluorescence was first measured with an excitation filter at 485 nm and an emission filter at 520 nm. Then, the same sample was incubated for 8 minutes with 5 μM coelenterazine h and the total luminescence was measured. BRET^2 and BRET^1 readings were collected using a modified Infinite F500 (Tecan Group Ltd). The BRET^2 signal was calculated by the ratio of emission of GFP2 (510–540 nm) to RLuc8 (370–450 nm) and the BRET^1 signal by the ratio of emission of Venus (520–570 nm) to RLuc (370–480 nm). Sometimes, results are expressed as the Net BRET computed by deducting the BRET background signal (obtained in the presence of the energy donor alone) from the BRET signal (acquired from cells expressing both the energy donor and acceptor).

[1] = system: washed human platelets (P2Y1-R/Gαq signaling); test: IP1 accumulation assay (HTRF) in washed human platelets; type: cell-based; conditions: for IP1 concentration (% of basal mean at 30 minutes): Fig. S4a, MRS2179 10 µM, individual replicates
Method: As performed in HEK293T cells, we thus quantified intracellular IP1 levels to monitor Gαq protein-dependent signaling pathways.
Human platelets were prepared from adult healthy volunteers free of antiplatelet or anti-inflammatory medication since at least ten days. […] After two steps of centrifugation and suspension in Tyrode’s buffer (140 mM NaCl, 5 mM KCl, 5 mM KH2PO4, 1 mM MgSO4, 10 mM HEPES, 5 mM glucose and 0.35% (w/v) BSA, pH 6,7), washed platelets were suspended in the same buffer adjusted to pH 7.4 and containing 1 mM CaCl2. The final platelet suspension was adjusted to 3.10^8 platelets/mL and rested for 45 min in the presence of 0.02 U/mL apyrase and 10 μM indomethacin at 37 °C prior experiments. PGI2 (0.5 μM) was added before centrifugation steps to avoid platelet activation.
Quantification of intracellular IP1 was performed using the HTRF (Homogeneous Time Resolved Fluorescence) IP1 competitive immunoassay (IP-One Tb kit. Cisbio. France) according to the manufacturer’s instructions. Briefly, 20,000 HEK293T/17 cells or 3.10^6 platelets were distributed in a 384-well white microplate (Greiner) and incubated with the indicated molecules for 30 min or 2 h at 37 °C in the presence of 50 mM of LiCl to prevent IP1 degradation. After addition of d2-labeled IP1 (acceptor) and anti-IP1-Cryptate (donor) for 1 h, the specific FRET signals were calculated by the fluorescence ratio of the acceptor and donor emission signal (665/620 nm) collected using a modified Infinite F500 (Tecan Group Ltd). Conversion of the HTRF ratio of each sample into IP1 concentrations was performed on the basis of a standard curve to determine the linear dynamic range of the assay.

[2] = Fig. 3g, inverse agonism on β-arrestin 2 recruitment, 15 min
[3] = β-Arrestin 2 signaling, Fig. 4b, 15 min

CNc1ncnc2c1ncn2[C@H]1C[C@H](OP(=O)(O)O)[C@@H](COP(=O)(O)O)O1 [MRS2179]
Effect on β-arrestin 2 recruitment at decreased (low) P2Y1-R expression (Human P2Y1-R; 10 μM, 15 min, decreasing amounts of P2Y1-R-Venus vector, result in words): loss of the inverse agonist efficacy | Maximal efficacy (Emax), MRS2179-modulated BRET (Human P2Y1-R; Fig. 3g, 15 min stimulation, difference in BRET signal with and without ligand): -0.1192 ± 0.007029 | EC50 (Human P2Y1-R; [2]): 4.56 µM | pEC50 ± s.e.m. (Human P2Y1-R; [2]): 5.341 ± 0.1565 | MRS2179-modulated BRET (Human P2Y1-R; [MRS2179] 1.00E-04 M): -0.1343 and -0.1251 and -0.1075 and -0.1104 and -0.1004 and -0.1271 | MRS2179-modulated BRET (Human P2Y1-R; [MRS2179] 1.00E-05 M): -0.08399 and -0.08788 and -0.08039 and -0.09033 and -0.07645 and -0.09139 | MRS2179-modulated BRET (Human P2Y1-R; [MRS2179] 1.00E-06 M): -0.02625 and -0.04054 and -0.04836 and -0.05476 and -0.05132 and -0.07031 | MRS2179-modulated BRET (Human P2Y1-R; [MRS2179] 1.00E-07 M): -0.0171 and -0.02456 and -0.02615 and -0.04428 and -0.0209 and -0.07223 | MRS2179-modulated BRET (Human P2Y1-R; [MRS2179] 1.00E-08 M): -0.003323 and -0.0198 and -0.01307 and -0.01788 and -0.04276 and -0.0269 | MRS2179-modulated BRET (Human P2Y1-R; [MRS2179] 1.00E-09 M): -0.00593 and -0.03381 and -0.01728 and -0.01928 and -0.03943 and -0.05623 | MRS2179-modulated BRET (Human P2Y1-R; [MRS2179] 1.00E-10 M): -0.003915 and -0.01627 and -0.01217 and -0.01765 and -0.03594 and -0.03393 | b-arrestin 2 signaling, Ligand-modulated BRET (% of maximum MRS2179 mean value) (Human P2Y1-R; [Ligand] 1.00E-04 M): -103.593 % of maximum MRS2179 mean value and -98.5011 % of maximum MRS2179 mean value and -96.2574 % of maximum MRS2179 mean value and -88.0215 % of maximum MRS2179 mean value and -113.627 % of maximum MRS2179 mean value | b-arrestin 2 signaling, Ligand-modulated BRET (% of maximum MRS2179 mean value) (Human P2Y1-R; [Ligand] 1.00E-05 M): -60.9526 % of maximum MRS2179 mean value and -65.9951 % of maximum MRS2179 mean value and -71.6134 % of maximum MRS2179 mean value and -73.8216 % of maximum MRS2179 mean value and -88.9449 % of maximum MRS2179 mean value | b-arrestin 2 signaling, Ligand-modulated BRET (% of maximum MRS2179 mean value) (Human P2Y1-R; [Ligand] 1.00E-06 M): -20.802 % of maximum MRS2179 mean value and -20.2455 % of maximum MRS2179 mean value and -36.1127 % of maximum MRS2179 mean value and -36.3804 % of maximum MRS2179 mean value and -49.6506 % of maximum MRS2179 mean value | b-arrestin 2 signaling, Ligand-modulated BRET (% of maximum MRS2179 mean value) (Human P2Y1-R; [Ligand] 1.00E-07 M): -19.7613 % of maximum MRS2179 mean value and -27.0869 % of maximum MRS2179 mean value and -32.4514 % of maximum MRS2179 mean value and -43.962 % of maximum MRS2179 mean value and -16.0925 % of maximum MRS2179 mean value | b-arrestin 2 signaling, Ligand-modulated BRET (% of maximum MRS2179 mean value) (Human P2Y1-R; [Ligand] 1.00E-08 M): -3.302 % of maximum MRS2179 mean value and 12.7459 % of maximum MRS2179 mean value and -20.5003 % of maximum MRS2179 mean value and -35.6867 % of maximum MRS2179 mean value and -12.0698 % of maximum MRS2179 mean value | b-arrestin 2 signaling, Ligand-modulated BRET (% of maximum MRS2179 mean value) (Human P2Y1-R; [Ligand] 1.00E-09 M): -20.2543 % of maximum MRS2179 mean value and -2.0253 % of maximum MRS2179 mean value and -34.1131 % of maximum MRS2179 mean value and -19.5954 % of maximum MRS2179 mean value and -10.4994 % of maximum MRS2179 mean value | b-arrestin 2 signaling, Ligand-modulated BRET (% of maximum MRS2179 mean value) (Human P2Y1-R; [Ligand] 1.00E-10 M): -0.05365 % of maximum MRS2179 mean value and -19.3587 % of maximum MRS2179 mean value and -11.2009 % of maximum MRS2179 mean value and -4.28 % of maximum MRS2179 mean value and -21.5173 % of maximum MRS2179 mean value | Ligand-modulated BRET (Human P2Y1-R; 0.1µg P2Y1-R plasmid): -0.007776 and -0.009026 and 0.006633 and -0.01036 and -0.001083 | Ligand-modulated BRET (Human P2Y1-R; 1µg P2Y1-R plasmid): -0.04239 and -0.06101 and -0.06001 and -0.03815 and -0.06277 | Ligand-modulated BRET (Human P2Y1-R; 4µg P2Y1-R plasmid): -0.06559 and -0.09192 and -0.04789 and -0.08727 and -0.06156 | Effect on β-arrestin 2 recruitment / BRET signal between P2Y1-R-Venus and β-arrestin 2-RLuc (Human P2Y1-R; HEK293T cells, high P2Y1-R expression, result in words): significantly decreased the BRET signal | EC50 (Human P2Y1-R; [3]): 5.05 µM | pEC50 ± s.e.m. (Human P2Y1-R; [3]): 5.296 ± 0.153 | IP1 concentration (% of basal mean at 30 minutes) ([1]; 30 minutes): 61.0057 % of basal mean at 30 minutes and 99.6481 % of basal mean at 30 minutes and 82.2183 % of basal mean at 30 minutes and 56.7485 % of basal mean at 30 minutes | IP1 concentration (% of basal mean at 30 minutes) ([1]; 2 hours): 94.0172 % of basal mean at 30 minutes and 113.32 % of basal mean at 30 minutes and 105.9 % of basal mean at 30 minutes and 70.9752 % of basal mean at 30 minutes | IP1 concentration (% matched basal values) ([1]; human platelets, MRS2179 10 μM, 2 h, individual donors): 129.303 % matched basal values and 123.213 % matched basal values and 123.793 % matched basal values and 163.625 % matched basal values and 131.963 % matched basal values and 159.513 % matched basal values and 140.89 % matched basal values and 171.298 % matched basal values and 155.836 % matched basal values and 154.357 % matched basal values and 192.203 % matched basal values and 190.967 % matched basal values and 205.13 % matched basal values and 115.394 % matched basal values and 124.227 % matched basal values and 114.571 % matched basal values | Effect on IP1 levels ([1]; washed human platelets, ADP 100 μM, antagonists 10 μM, Gq inhibitor 100 nM, 2 h, apyrase 0.02 U/mL, result in words): decreased IP1 levels
